Test results reported in ChEMBL document CHEMBL1156981, “NGF-potentiating vibsane-type diterpenoids from Viburnum sieboldii” (Bioorg Med Chem Lett, 2010).
Active and inactive are the calls of the source. The rule behind the calls is not given here.

How the values were obtained:
Format in all cases: functional, cell-based
PC-12 [1] = experiment: Potentiation of NGF-induced neurite outgrowth in rat PC12 cells assessed increase in neurite length extending from cell bodies after 48 hrs by phase-contrast microscopy
PC-12 [2] = experiment: Potentiation of NGF-induced neurite outgrowth in rat PC12 cells assessed as morphological changes after 48 hrs by phase-contrast microscopy
PC-12 [3] = experiment: Induction of neurite outgrowth in rat PC12 cells assessed as morphological changes after 48 hrs by phase-contrast microscopy
PC-12 [4] = experiment: Potentiation of NGF-induced neurite outgrowth in rat PC12 cells assessed increase in neurite length extending from cell bodies at 0.1 to 40 uM after 48 hrs by phase-contrast microscopy
PC-12 [5] = experiment: Potentiation of NGF-induced neurite outgrowth in rat PC12 cells assessed as morphological changes at 0.1 to 40 uM after 48 hrs by phase-contrast microscopy

SMILES	Activity (PC-12 [1])	Activity (PC-12 [2])	Activity (PC-12 [3])	Activity (PC-12 [4])	Activity (PC-12 [5])
COC(C)(C)/C=C/C[C@@]1(C)CC=C2CO[C@H]3C[C@](C)(OC)O[C@@]23[C@@H]1/C=C/OC(=O)C=C(C)C	Dose-dependent effect	Dose-dependent effect	inactive		
COC(C)(C)/C=C/C[C@@]1(C)CC=C(CO)C(=O)[C@H](CC(C)=O)[C@@H]1/C=C/OC(=O)C=C(C)C	inactive		inactive	inactive	inactive
COC(C)(C)/C=C/C[C@@]1(C)CC=C2CO[C@H]3C[C@@](C)(OC)O[C@@]23[C@@H]1/C=C/OC(=O)C=C(C)C			inactive		
CO[C@]1(C)C[C@@H]2OCC3=CC[C@](C)(C/C=C/C(C)C)[C@@H](/C=C/OC(=O)C=C(C)C)[C@]32O1	Dose-dependent effect	Dose-dependent effect	inactive		
COC(C)(C)/C=C/C[C@@]1(C)CC=C2CO[C@H]3C[C@@](C)(OC)O[C@@]23[C@@H]1/C=C\OC(=O)C=C(C)C	Dose-dependent effect	Dose-dependent effect	inactive		
CC(=O)C[C@@H]1C[C@@]2(C)CC=C3CO[C@@H](CC(C)=O)[C@]3(O1)[C@@H]2/C=C/OC(=O)C=C(C)C			inactive		
COC(C)(C)/C=C/C[C@@]1(C)CC=C(CO)C(=O)[C@@H](CC(C)=O)[C@@H]1/C=C/OC(=O)C=C(C)C			inactive	inactive	inactive
CO[C@@]1(C)C[C@@H]2OCC3=CC[C@](C)(C/C=C/C(C)C)[C@@H](/C=C/OC(=O)C=C(C)C)[C@]32O1	Dose-dependent effect	Dose-dependent effect	inactive		
